From patent publication US6525001B1, “Substituted pyrimidine and pyridine herbicides” (Mid-American Commercialization Corporation, priority 1997, dated 2003)

Legend:
Assay in all cases: Test B pre-/postemergence
Format in all cases: in vivo
Set-up in all cases: key: 0 is no effect; 10 is complete control
[1] = test system: wheat (Triticum aestivum)
Method in brief: (§1)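 Scored visually 0 (none) to 10 (complete control) against untreated plants after twelve to sixteen greenhouse days. Test chemicals, formulated in surfactant-containing non-phytotoxic solvent, applied to soil after planting and, separately, onto 1- to 4-leaf (2–18 cm) plants.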

soybean (Glycine max) = test system: soybean (Glycine max)
Method in brief: as §1

[2] = test system: cocklebur (Xanthium strumarium)
Method in brief: as §1

[3] = test system: sugar beet (Beta vulgaris)
Method in brief: as §1

[4] = test system: giant foxtail (Setaria faberii)
Method in brief: as §1

[5] = test system: velvetleaf (Abutilon theophrasti)
Method in brief: as §1

[6] = test system: pigweed (Amaranthus retroflexus)
Method in brief: as §1

[7] = test system: bedstraw (Galium aparine)
Method in brief: as §1

corn (Zea mays) = test system: corn (Zea mays)
Method in brief: as §1

[8] = test system: blackgrass (Alopecurus myosuroides)
Method in brief: as §1

[9] = test system: broadleaf signalgrass (Brachiaria decumbens); settings: Preemergence
Method in brief: as §1

[10] = test system: momingglory (Ipomoea hederacea)
Method in brief: as §1

rape (Brassica napus) = test system: rape (Brassica napus)
Method in brief: as §1

[11] = test system: crabgrass (Digitaria sanguinalis)
Method in brief: as §1

For `Cc1cnc(-c2ccc(Cl)cc2)nc1Cn1ccc(C(F)(F)F)n1` [Compound 6], the “Plant response rating, Wheat” value ([1]; Rate 62 g/ha, Postemergence) was 1, the “Wheat plant response rating” value ([1]; Rate 62 g/ha, Preemergence) was 0 and the “Plant response rating, Wheat” value ([1]; Rate 125 g/ha, Postemergence) was 2. For the same compound, the “Wheat plant response rating” value ([1]; Rate 125 g/ha, Preemergence) was 0, the “Plant response rating, Wheat” value ([1]; Rate 250 g/ha, Postemergence) was 2 and the “Plant response rating, Wheat” value ([1]; Rate 250 g/ha, Preemergence) was 0. The “Plant response rating, Wheat” value ([1]; Rate 500 g/ha, Postemergence) was 3, the “Plant response rating, Wheat” value ([1]; Rate 500 g/ha, Preemergence) was 0 and the “Plant response rating, Soybean” value (soybean (Glycine max); Rate 62 g/ha, Postemergence) was 6. The “Soybean plant response rating” value (soybean (Glycine max); Rate 62 g/ha, Preemergence) was 0, the “Plant response rating, Soybean” value (soybean (Glycine max); Rate 125 g/ha, Postemergence) was 6 and the “Soybean plant response rating” value (soybean (Glycine max); Rate 125 g/ha, Preemergence) was 0. The “Plant response rating, Soybean” value (soybean (Glycine max); Rate 250 g/ha, Postemergence) was 6, the “Plant response rating, Soybean” value (soybean (Glycine max); Rate 250 g/ha, Preemergence) was 0 and the “Plant response rating, Soybean” value (soybean (Glycine max); Rate 500 g/ha, Postemergence) was 6. For the same compound, the “Plant response rating, Soybean” value (soybean (Glycine max); Rate 500 g/ha, Preemergence) was 0, the “Plant response rating, Cocklebur” value ([2]; Rate 62 g/ha, Postemergence) was 5 and the “Cocklebur plant response rating” value ([2]; Rate 62 g/ha, Preemergence) was 0. The “Plant response rating, Cocklebur” value ([2]; Rate 125 g/ha, Postemergence) was 6, the “Cocklebur plant response rating” value ([2]; Rate 125 g/ha, Preemergence) was 0 and the “Plant response rating, Cocklebur” value ([2]; Rate 250 g/ha, Postemergence) was 7. The “Plant response rating, Cocklebur” value ([2]; Rate 250 g/ha, Preemergence) was 0, the “Plant response rating, Cocklebur” value ([2]; Rate 500 g/ha, Postemergence) was 7 and the “Plant response rating, Cocklebur” value ([2]; Rate 500 g/ha, Preemergence) was 0. For the same compound, the “Plant response rating, Sugarbeets” value ([3]; Rate 62 g/ha, Postemergence) was 7, the “Sugarbeets plant response rating” value ([3]; Rate 62 g/ha, Preemergence) was 0 and the “Plant response rating, Sugarbeets” value ([3]; Rate 125 g/ha, Postemergence) was 8. For the same compound, the “Sugarbeets plant response rating” value ([3]; Rate 125 g/ha, Preemergence) was 3, the “Plant response rating, Sugarbeets” value ([3]; Rate 250 g/ha, Postemergence) was 8 and the “Plant response rating, Sugarbeets” value ([3]; Rate 250 g/ha, Preemergence) was 9. For the same compound, the “Plant response rating, Sugarbeets” value ([3]; Rate 500 g/ha, Postemergence) was 9, the “Plant response rating, Sugarbeets” value ([3]; Rate 500 g/ha, Preemergence) was 10 and the “Giant foxtail plant response rating” value ([4]; Rate 62 g/ha, Preemergence) was 2. The “Plant response rating, Giant foxtail” value ([4]; Rate 125 g/ha, Postemergence) was 4, the “Giant foxtail plant response rating” value ([4]; Rate 125 g/ha, Preemergence) was 6 and the “Plant response rating, Giant foxtail” value ([4]; Rate 250 g/ha, Postemergence) was 5. For the same compound, the “Plant response rating, Giant foxtail” value ([4]; Rate 250 g/ha, Preemergence) was 9, the “Plant response rating, Giant foxtail” value ([4]; Rate 500 g/ha, Postemergence) was 6 and the “Plant response rating, Giant foxtail” value ([4]; Rate 500 g/ha, Preemergence) was 10. For the same compound, the “Plant response rating, Velvetleaf” value ([5]; Rate 62 g/ha, Postemergence) was 7, the “Velvetleaf plant response rating” value ([5]; Rate 62 g/ha, Preemergence) was 1 and the “Plant response rating, Velvetleaf” value ([5]; Rate 125 g/ha, Postemergence) was 7. The “Velvetleaf plant response rating” value ([5]; Rate 125 g/ha, Preemergence) was 2, the “Plant response rating, Velvetleaf” value ([5]; Rate 250 g/ha, Postemergence) was 8 and the “Plant response rating, Velvetleaf” value ([5]; Rate 250 g/ha, Preemergence) was 2. The “Plant response rating, Velvetleaf” value ([5]; Rate 500 g/ha, Postemergence) was 8, the “Plant response rating, Velvetleaf” value ([5]; Rate 500 g/ha, Preemergence) was 3 and the “Plant response rating, Redroot pigweed” value ([6]; Rate 62 g/ha, Postemergence) was 5. For the same compound, the “Redroot pigweed plant response rating” value ([6]; Rate 62 g/ha, Preemergence) was 0, the “Plant response rating, Redroot pigweed” value ([6]; Rate 125 g/ha, Postemergence) was 7 and the “Redroot pigweed plant response rating” value ([6]; Rate 125 g/ha, Preemergence) was 3. The “Plant response rating, Redroot pigweed” value ([6]; Rate 250 g/ha, Postemergence) was 9, the “Plant response rating, Redroot pigweed” value ([6]; Rate 250 g/ha, Preemergence) was 6 and the “Plant response rating, Redroot pigweed” value ([6]; Rate 500 g/ha, Postemergence) was 9. The “Plant response rating, Redroot pigweed” value ([6]; Rate 500 g/ha, Preemergence) was 6, the “Plant response rating, Bedstraw” value ([7]; Rate 62 g/ha, Postemergence) was 5 and the “Bedstraw plant response rating” value ([7]; Rate 62 g/ha, Preemergence) was 0. For the same compound, the “Plant response rating, Bedstraw” value ([7]; Rate 125 g/ha, Postemergence) was 7, the “Bedstraw plant response rating” value ([7]; Rate 125 g/ha, Preemergence) was 0 and the “Plant response rating, Bedstraw” value ([7]; Rate 250 g/ha, Postemergence) was 7. The “Plant response rating, Bedstraw” value ([7]; Rate 250 g/ha, Preemergence) was 0, the “Plant response rating, Bedstraw” value ([7]; Rate 500 g/ha, Postemergence) was 8 and the “Plant response rating, Bedstraw” value ([7]; Rate 500 g/ha, Preemergence) was 5. The “Plant response rating, Corn” value (corn (Zea mays); Rate 62 g/ha, Postemergence) was 3, the “Corn plant response rating” value (corn (Zea mays); Rate 62 g/ha, Preemergence) was 0 and the “Plant response rating, Corn” value (corn (Zea mays); Rate 125 g/ha, Postemergence) was 3. The “Corn plant response rating” value (corn (Zea mays); Rate 125 g/ha, Preemergence) was 0, the “Plant response rating, Corn” value (corn (Zea mays); Rate 250 g/ha, Postemergence) was 3 and the “Plant response rating, Corn” value (corn (Zea mays); Rate 250 g/ha, Preemergence) was 0. The “Plant response rating, Corn” value (corn (Zea mays); Rate 500 g/ha, Postemergence) was 3, the “Plant response rating, Corn” value (corn (Zea mays); Rate 500 g/ha, Preemergence) was 0 and the “Plant response rating, Blackgrass” value ([8]; Rate 62 g/ha, Postemergence) was 0. The “Blackgrass plant response rating” value ([8]; Rate 62 g/ha, Preemergence) was 0, the “Plant response rating, Blackgrass” value ([8]; Rate 125 g/ha, Postemergence) was 2 and the “Blackgrass plant response rating” value ([8]; Rate 125 g/ha, Preemergence) was 0. For the same compound, the “Plant response rating, Blackgrass” value ([8]; Rate 250 g/ha, Postemergence) was 2, the “Plant response rating, Blackgrass” value ([8]; Rate 250 g/ha, Preemergence) was 0 and the “Plant response rating, Blackgrass” value ([8]; Rate 500 g/ha, Postemergence) was 2. The “Plant response rating, Blackgrass” value ([8]; Rate 500 g/ha, Preemergence) was 4, the “B. signalgrass plant response rating” value ([9]; Rate 62 g/ha) was 1 and the “B. signalgrass plant response rating” value ([9]; Rate 125 g/ha) was 4. The “Plant response rating, B. signalgrass” value ([9]; Rate 250 g/ha) was 9, the “Plant response rating, B. signalgrass” value ([9]; Rate 500 g/ha) was 9 and the “Plant response rating, Morningglory” value ([10]; Rate 62 g/ha, Postemergence) was 3. The “Morningglory plant response rating” value ([10]; Rate 62 g/ha, Preemergence) was 1, the “Plant response rating, Morningglory” value ([10]; Rate 125 g/ha, Postemergence) was 8 and the “Morningglory plant response rating” value ([10]; Rate 125 g/ha, Preemergence) was 1. For the same compound, the “Plant response rating, Morningglory” value ([10]; Rate 250 g/ha, Postemergence) was 8, the “Plant response rating, Morningglory” value ([10]; Rate 250 g/ha, Preemergence) was 2 and the “Plant response rating, Morningglory” value ([10]; Rate 500 g/ha, Postemergence) was 8. The “Plant response rating, Morningglory” value ([10]; Rate 500 g/ha, Preemergence) was 2, the “Plant response rating, Rape” value (rape (Brassica napus); Rate 62 g/ha, Postemergence) was 8 and the “Rape plant response rating” value (rape (Brassica napus); Rate 62 g/ha, Preemergence) was 0. For the same compound, the “Plant response rating, Rape” value (rape (Brassica napus); Rate 125 g/ha, Postemergence) was 8, the “Rape plant response rating” value (rape (Brassica napus); Rate 125 g/ha, Preemergence) was 2 and the “Plant response rating, Rape” value (rape (Brassica napus); Rate 250 g/ha, Postemergence) was 8. The “Plant response rating, Rape” value (rape (Brassica napus); Rate 250 g/ha, Preemergence) was 4, the “Plant response rating, Rape” value (rape (Brassica napus); Rate 500 g/ha, Postemergence) was 8 and the “Plant response rating, Rape” value (rape (Brassica napus); Rate 500 g/ha, Preemergence) was 7. The “Plant response rating, Crabgrass” value ([11]; Rate 62 g/ha, Postemergence) was 5, the “Crabgrass plant response rating” value ([11]; Rate 62 g/ha, Preemergence) was 1 and the “Plant response rating, Crabgrass” value ([11]; Rate 125 g/ha, Postemergence) was 8. For the same compound, the “Crabgrass plant response rating” value ([11]; Rate 125 g/ha, Preemergence) was 2, the “Plant response rating, Crabgrass” value ([11]; Rate 250 g/ha, Postemergence) was 8 and the “Plant response rating, Crabgrass” value ([11]; Rate 250 g/ha, Preemergence) was 8. The “Plant response rating, Crabgrass” value ([11]; Rate 500 g/ha, Postemergence) was 9 and the “Plant response rating, Crabgrass” value ([11]; Rate 500 g/ha, Preemergence) was 10.
